Test results reported in US8614201B2 (Janssen Pharmaceutica NV, priority 2009, dated 2013).

Target: Human TRPA1 (Homo sapiens, UniProt O75762)
Assay: Assay 1: In vitro cellular testing of TRPA1 modulation (CHO-TREx, Fluo-3 calcium fluorescence, AITC agonist)
Type: cell-based
Set-up: expressed in transfected cells; host or cells: CHO-TREx cells (Invitrogen), vector pcDNA4/TO
Details: CHO-TREx cells expressing human TRPA1; Fluo-3 fluorescence (FLIPR/Tetra); agonist 15 μM allyl isothiocyanate (AITC); 30 minute antagonist incubation
Summary of the method: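 Tetracycline-induced CHO-TREx cells stably expressing human TRPA1, loaded with 4 μM Fluo-3 AM, preincubated 30 min with compound (serial dilution typically from 10 μM, three-fold steps) in HEPES saline pH 7.4. Fluorescence change over 3 min after 15 μM AITC; IC50 from Hill fit versus no-antagonist and 10 μM ruthenium red controls.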

Sequence of Human TRPA1 (O75762 whole entry): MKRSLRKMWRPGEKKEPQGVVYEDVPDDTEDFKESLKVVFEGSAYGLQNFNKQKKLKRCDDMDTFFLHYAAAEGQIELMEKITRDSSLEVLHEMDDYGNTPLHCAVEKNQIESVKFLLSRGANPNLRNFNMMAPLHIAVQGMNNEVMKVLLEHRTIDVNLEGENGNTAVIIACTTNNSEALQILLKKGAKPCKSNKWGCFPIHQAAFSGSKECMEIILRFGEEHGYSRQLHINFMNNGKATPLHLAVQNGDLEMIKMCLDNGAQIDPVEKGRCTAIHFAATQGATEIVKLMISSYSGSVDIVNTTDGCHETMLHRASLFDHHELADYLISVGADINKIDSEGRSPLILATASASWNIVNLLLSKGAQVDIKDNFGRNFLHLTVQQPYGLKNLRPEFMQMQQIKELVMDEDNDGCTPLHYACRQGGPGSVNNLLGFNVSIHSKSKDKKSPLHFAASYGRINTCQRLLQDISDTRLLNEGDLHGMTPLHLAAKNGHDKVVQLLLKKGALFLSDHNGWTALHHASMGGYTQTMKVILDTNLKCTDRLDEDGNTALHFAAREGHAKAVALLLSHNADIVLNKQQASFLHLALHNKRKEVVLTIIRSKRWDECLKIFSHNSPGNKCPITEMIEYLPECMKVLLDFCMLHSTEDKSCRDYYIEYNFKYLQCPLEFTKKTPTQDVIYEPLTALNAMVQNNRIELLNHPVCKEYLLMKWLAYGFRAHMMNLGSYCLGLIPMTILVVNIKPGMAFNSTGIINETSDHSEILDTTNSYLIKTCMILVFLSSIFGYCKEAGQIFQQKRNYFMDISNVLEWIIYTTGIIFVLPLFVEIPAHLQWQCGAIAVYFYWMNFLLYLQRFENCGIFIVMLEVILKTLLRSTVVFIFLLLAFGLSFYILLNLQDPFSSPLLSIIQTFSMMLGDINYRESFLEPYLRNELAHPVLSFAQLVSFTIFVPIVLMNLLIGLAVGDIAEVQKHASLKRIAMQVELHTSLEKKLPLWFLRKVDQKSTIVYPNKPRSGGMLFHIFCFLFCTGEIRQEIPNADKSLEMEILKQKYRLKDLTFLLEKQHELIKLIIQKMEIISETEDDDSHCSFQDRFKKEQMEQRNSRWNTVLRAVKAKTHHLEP

Row | Structure (SMILES) | IC50
1 | O=C(NCc1cc(-c2ccc(C(F)(F)F)cc2)nc(OCCN2CCCC2)n1)[C@@H]1CCCN1S(=O)(=O)c1ccc(Cl)s1 [Example 62, 1-(5-Chloro-thiophene-2-sulfonyl)-pyrrolidine-2S-carboxylic acid [2-(2-pyrrolidin-1-yl-ethoxy)-6-(4-trifluoromethyl-phenyl)-pyrimidin-4-ylmethyl]-amide] | 3210 nM
2 | O=C(NCc1cc(-c2ccc(C(F)(F)F)cc2)nc(OCCN2CCCCC2)n1)[C@@H]1CCCN1S(=O)(=O)c1ccc(Cl)s1 [Example 63, 1-(5-Chloro-thiophene-2-sulfonyl)-pyrrolidine-2S-carboxylic acid [2-(2-piperidin-1-yl-ethoxy)-6-(4-trifluoromethyl-phenyl)-pyrimidin-4-ylmethyl]-amide] | 78 nM
3 | O=C(NCc1cc(-c2ccc(C(F)(F)F)cc2)nc(OCCN2CCOCC2)n1)[C@@H]1CCCN1S(=O)(=O)c1ccc(Cl)s1 [Example 64, 1-(5-Chloro-thiophene-2-sulfonyl)-pyrrolidine-2S-carboxylic acid [2-(2-morpholin-4-yl-ethoxy)-6-(4-trifluoromethyl-phenyl)-pyrimidin-4-ylmethyl]-amide] | 234 nM
4 | O=C(NCc1cccc(-c2ccc(C(F)(F)F)cc2)c1)[C@@H]1CCCN1S(=O)(=O)c1ccc(F)cc1 [Example 65, 1-(4-Fluorobenzenesulfonyl)-pyrrolidine-2S-carboxylic acid (4′-trifluoromethylbiphenyl-3-ylmethyl)-amide] | 15 nM
5 | O=C(NCc1cccc(-c2cccc(C(F)(F)F)c2)c1)[C@@H]1CCCN1S(=O)(=O)c1ccc(F)cc1 [Example 66, 1-(4-Fluorobenzenesulfonyl)-pyrrolidine-2S-carboxylic acid (3′-trifluoromethylbiphenyl-3-ylmethyl)-amide] | 253 nM
6 | O=C(NCc1cccc(-c2ccccc2C(F)(F)F)c1)[C@@H]1CCCN1S(=O)(=O)c1ccc(F)cc1 [Example 67, 1-(4-Fluorobenzenesulfonyl)-pyrrolidine-2S-carboxylic acid (2′-trifluoromethylbiphenyl-3-ylmethyl)-amide] | 515 nM
7 | O=C(NCc1cccc(-c2ccc(OC(F)(F)F)cc2)c1)[C@@H]1CCCN1S(=O)(=O)c1ccc(F)cc1 [Example 68, 1-(4-Fluorobenzenesulfonyl)-pyrrolidine-2S-carboxylic acid (4′-trifluoromethoxybiphenyl-3-ylmethyl)-amide] | 26 nM
8 | O=C(NCc1cccc(-c2cccc(OC(F)(F)F)c2)c1)[C@@H]1CCCN1S(=O)(=O)c1ccc(F)cc1 [Example 69, 1-(4-Fluorobenzenesulfonyl)-pyrrolidine-2S-carboxylic acid (3′-trifluoromethoxybiphenyl-3-ylmethyl)-amide] | 181 nM
9 | O=C(NCc1cccc(-c2ccccc2OC(F)(F)F)c1)[C@@H]1CCCN1S(=O)(=O)c1ccc(F)cc1 [Example 70, 1-(4-Fluorobenzenesulfonyl)-pyrrolidine-2S-carboxylic acid (2′-trifluoromethoxybiphenyl-3-ylmethyl)-amide] | 746 nM
10 | O=C(NCc1cccc(-c2ccc(C(F)(F)F)c(F)c2)c1)[C@@H]1CCCN1S(=O)(=O)c1ccc(F)cc1 [Example 71, 1-(4-Fluorobenzenesulfonyl)-pyrrolidine-2S-carboxylic acid (3′-fluoro-4′-trifluoromethylbiphenyl-3-ylmethyl)-amide] | 14 nM
11 | O=C(NCc1cccc(-c2ccc(C(F)(F)F)c(Cl)c2)c1)[C@@H]1CCCN1S(=O)(=O)c1ccc(F)cc1 [Example 72, 1-(4-Fluoro-benzenesulfonyl)-pyrrolidine-2S-carboxylic acid (3′-chloro-4′-trifluoromethyl-biphenyl-3-ylmethyl)-amide] | 17 nM
12 | O=C(NCc1cccc(-c2ccc(OC(F)(F)F)c(F)c2)c1)[C@@H]1CCCN1S(=O)(=O)c1ccc(F)cc1 [Example 73, 1-(4-Fluorobenzenesulfonyl)-pyrrolidine-2S-carboxylic acid (3′-fluoro-4′-trifluoromethoxybiphenyl-3-ylmethyl)-amide] | 4 nM

Other lines, results leading:

Row | IC50 | Structure (SMILES)
13 | 17 nM | O=C(NCc1cccc(-c2cc(F)c(OC(F)F)c(F)c2)c1)[C@@H]1CCCN1S(=O)(=O)c1ccc(F)cc1 [Example 74, 1-(4-Fluorobenzenesulfonyl)-pyrrolidine-2S-carboxylic acid (4′-difluoromethoxy-3′,5′-difluorobiphenyl-3-ylmethyl)-amide]
14 | 771 nM | CS(=O)(=O)c1ccc(-c2cccc(CNC(=O)[C@@H]3CCCN3S(=O)(=O)c3ccc(F)cc3)c2)cc1 [Example 75, 1-(4-Fluorobenzenesulfonyl)-pyrrolidine-2S-carboxylic acid (4′-methanesulfonylbiphenyl-3-ylmethyl)-amide]
15 | 24 nM | O=C(NCc1cccc(-c2ccc([N+](=O)[O-])cc2)c1)[C@@H]1CCCN1S(=O)(=O)c1ccc(F)cc1 [Example 76, 1-(4-Fluorobenzenesulfonyl)-pyrrolidine-2S-carboxylic acid (4′-nitrobiphenyl-3-ylmethyl)-amide]
16 | 59 nM | O=C(NCc1cccc(-c2ccc(Br)cc2)c1)[C@@H]1CCCN1S(=O)(=O)c1ccc(F)cc1 [Example 77, 1-(4-Fluoro-benzenesulfonyl)-pyrrolidine-2S-carboxylic acid (4′-bromo-biphenyl-3-ylmethyl)-amide]
17 | 6050 nM | NS(=O)(=O)c1ccc(-c2cccc(CNC(=O)[C@@H]3CCCN3S(=O)(=O)c3ccc(F)cc3)c2)cc1 [Example 78, 1-(4-Fluorobenzenesulfonyl)-pyrrolidine-2S-carboxylic acid (4′-sulfamoyl-biphenyl-3-ylmethyl)-amide]
18 | 137 nM | Cc1ccc(-c2cccc(CNC(=O)[C@@H]3CCCN3S(=O)(=O)c3ccc(F)cc3)c2)cc1 [Example 79, 1-(4-Fluoro-benzenesulfonyl)-pyrrolidine-2S-carboxylic acid (4′-methyl-biphenyl-3-ylmethyl)-amide]
19 | 410 nM | COc1ccc(-c2cccc(CNC(=O)[C@@H]3CCCN3S(=O)(=O)c3ccc(F)cc3)c2)cc1 [Example 80, 1-(4-Fluorobenzenesulfonyl)-pyrrolidine-2S-carboxylic acid (4′-methoxybiphenyl-3-ylmethyl)-amide]
20 | 93 nM | O=C(NCc1cccc(-c2ccc(OCC(F)(F)F)cc2)c1)[C@@H]1CCCN1S(=O)(=O)c1ccc(F)cc1 [Example 81, 1-(4-Fluorobenzenesulfonyl)-pyrrolidine-2S-carboxylic acid [4′-(2,2,2-trifluoroethoxy)-biphenyl-3-ylmethyl]-amide]
21 | 50 nM | CSc1ccc(-c2cccc(CNC(=O)[C@@H]3CCCN3S(=O)(=O)c3ccc(F)cc3)c2)cc1 [Example 82, 1-(4-Fluoro-benzenesulfonyl)-pyrrolidine-2S-carboxylic acid (4′-methylsulfanyl-biphenyl-3-ylmethyl)-amide]
22 | 73 nM | O=C(NCc1cccc(-c2ccc(Cl)nc2)c1)[C@@H]1CCCN1S(=O)(=O)c1ccc(F)cc1 [Example 83, 1-(4-Fluoro-benzenesulfonyl)-pyrrolidine-2S-carboxylic acid 3-(6-chloro-pyridin-3-yl)-benzylamide]
23 | 340 nM | COc1ccc(-c2cccc(CNC(=O)[C@@H]3CCCN3S(=O)(=O)c3ccc(F)cc3)c2)cn1 [Example 84, 1-(4-Fluorobenzenesulfonyl)-pyrrolidine-2S-carboxylic acid 3-(6-methoxypyridin-3-yl)-benzylamide]
